Data reported in ChEMBL document CHEMBL1649556, “Lack of antimicrobial activity by the antiretroviral drug nevirapine against common bacterial pathogens” (2009).
Values after ≈ are worked out from the molar mass of the structure shown. Active and inactive are the calls of the source. No cut-off for these calls is given here.

Key:
[1] = test system: Haemophilus influenzae; assay: Antibacterial activity against Haemophilus influenzae after 18 to 24 hrs by agar dilution method; format: functional
[2] = test system: Haemophilus influenzae; assay: Antibacterial activity against Haemophilus influenzae […] after 18 to 24 hrs by agar dilution method; format: functional
[3] = test system: Escherichia coli; assay: Antibacterial activity against Escherichia coli ATCC 25922 after 18 to 24 hrs by agar dilution method; format: functional
[4] = test system: Streptococcus pneumoniae; assay: Antibacterial activity against Streptococcus pneumoniae ATCC 49619 after 18 to 24 hrs by agar dilution method; format: functional
[5] = test system: Shigella sonnei; assay: Antibacterial activity against Shigella sonnei […] after 18 to 24 hrs by agar dilution method; format: functional
[6] = test system: Staphylococcus aureus; assay: Antibacterial activity against Staphylococcus aureus ATCC 29213 after 18 to 24 hrs by agar dilution method; format: functional
[7] = test system: Staphylococcus aureus; assay: Antibacterial activity against Staphylococcus aureus after 18 to 24 hrs by agar dilution method; format: functional
[8] = test system: Streptococcus pneumoniae; assay: Antibacterial activity against Streptococcus pneumoniae after 18 to 24 hrs by agar dilution method; format: functional
[9] = test system: Escherichia coli; assay: Antibacterial activity against Escherichia coli after 18 to 24 hrs by agar dilution method; format: functional
[10] = test system: Salmonella; assay: Antibacterial activity against Salmonella group D after 18 to 24 hrs by agar dilution method; format: functional
[11] = test system: Shigella flexneri; assay: Antibacterial activity against Shigella flexneri group B after 18 to 24 hrs by agar dilution method; format: functional
[12] = test system: Human immunodeficiency virus; assay: Antiviral activity against HIV infected in human PBMC assessed as decrease in viral p24 antigen production at 0.25 to 4 ug/ml after 14 days by ELISA; format: functional, organism-based
[13] = Antibacterial activity against Salmonella group B ATCC 31194 after 18 to 24 hrs by agar dilution method; format: functional; settings: Salmonella sp. 'group B'

With `Cc1ccnc2c1NC(=O)c1cccnc1N2C1CC1` [NEVIRAPINE] the MIC [1] was 4 µg/mL (≈ 15 µM), the MIC [2] was 4 µg/mL (≈ 15 µM) and the MIC [3] was 4 µg/mL (≈ 15 µM). For the same compound, the MIC [4] was 4 µg/mL (≈ 15 µM), the MIC [5] was 4 µg/mL (≈ 15 µM) and the MIC [6] was 4 µg/mL (≈ 15 µM). For the same compound, the MIC [7] was 4 µg/mL (≈ 15 µM), the MIC [8] was 4 µg/mL (≈ 15 µM) and the MIC [9] was 4 µg/mL (≈ 15 µM). The MIC [10] was 4 µg/mL (≈ 15 µM), the MIC [11] was 4 µg/mL (≈ 15 µM) and the inhibition [12] was “Active”. The MIC [13] was 4 µg/mL (≈ 15 µM).
